In US20250064799A1, “ORAL FORMULATIONS OF LEVOSIMENDAN FOR TREATING PULMONARY HYPERTENSION WITH HEART FAILURE WITH PRESERVED EJECTION FRACTION” (Tenax Therapeutics, Inc., priority 2021, published 2025):

How the values were obtained:
patients with PH-HFpEF [1] = assay: Serum BNP or NT-proBNP levels, I.V. to oral levosimendan transition study; type: in vivo, human
Description: (§1) Methods: Patients with PH-HFpEF who were in the open label extension study of the HELP Trial for more than 18 months volunteered to enroll in this transition protocol. Patients were initiated with 1 mg/day of oral levosimendan 5-7 days after the last IV levosimendan infusion. The oral dose was increased every 2 weeks by 1 mg/day to a maximum of 4 mg/day over an 8 week period. The highest daily dose was determined by the investigator based on clinical assessments of symptoms and side effects. The primary safety endpoints were change in resting heart rate and blood pressure from baseline to final study visit and all other adverse events. Secondary efficacy endpoints included change in six-minute walk distance (6MWD), serum brain natriuretic peptide (BNP) or NT-proBNP levels, and quality of life as assessed by Kansas City Cardiomyopathy Questionnaire clinical summary score (KCCQ-CS) and overall summary score (KCCQ-OS) from baseline to final study visit. All comparisons were the baseline and at week 6-8 measurements at the highest daily dose of levosimendan.
• Change in six-minute walk distance (6MWD) from baseline to final study visit • Change in serum brain natriuretic peptide (BNP) or NT-proBNP levels from baseline to final study visit • Change in quality of life as assessed by Kansas City Cardiomyopathy Questionnaire clinical summary score (KCCQ-CS) and overall summary score (KCCQ-OS) from baseline to final study visit
All comparisons were the baseline and at week 6-8 measurements at the highest daily dose of levosimendan.

patients with PH-HFpEF [2] = assay: Resting heart rate and systolic arterial blood pressure, I.V. to oral levosimendan transition study; type: in vivo, human
Description: Once that dose is determined, the study is identical with respect to the protocol. Since the I.V. formulation is weight based, and bypasses issues of bioavailability that may be affected by drug absorption, a dose escalation strategy is being adopted, guided by the individual patient response and any adverse events that may occur. Thus, the measurement of a six-minute walk test and patient questionnaire before and after the transition was to ensure that the patient continues to benefit. In addition, the monitoring of the patients' blood pressure and heart rate each day was to ensure that the oral dose remains safe.
The following considerations justified amending the TNX-LVO-05 study protocol: • 1. The amended TNX-LVO-05 protocol included the same patients enrolled in the original study. This was not a new study of the patients currently enrolled. This was open label, with no blinding of patients or physicians, and no control group. • 2. The scope and purpose of the study was unchanged, with the exception that it offered the further extension of treatment allowed by the transition to oral therapy (See item #4). • 3. The amendment clearly delineated a stepwise and thoughtful titration of patients from their intravenous to oral levosimendan to ensure the safe and effective transition of their levosimendan regimen. • a. Patients were started on 1 mg daily, representing a dose generally less than half their total weekly weight-based dose regimen. • b. Patients were titrated based on tolerance to the daily levosimendan paying attention to their symptoms of PH-HFpEF, and special attention to specific adverse events of interest, heart rate and blood pressure. A daily diary captured patient vitals and symptoms to aid their physician in titrating patients at two-week intervals. • c. Patient response also was evaluated by clinical measures to provide the physician with additional information on the patient's response. • d. While most patients were expected to receive 2-3 mg daily at the conclusion of the transition study, the dose escalation strategy was included to allow all patients to realize the same benefit as they did from the I.V. formulation. • e. To document the sustained efficacy of the oral formulation in these patients, patients had to undergo a six-minute walk test and patient questionnaire prior to and at the end of the transition study. • 4. The transition to oral levosimendan allowed for extension of the study from its initial two years to an additional three years. This offers these PH-HFpEF patients, with no other treatments available, to continue on a drug that they have responded to. • 5. The amendment required patients to sign a revised informed consent to ensure patients are completely informed concerning the transition amendment. Patients that preferred to continue with their weekly 24-hour I.V. regimen were allowed to continue through the initial two-year period of the study and then will be withdrawn.
as §1, with “All comparisons were the baseline and at week 6-8 measurements at the highest daily dose of levosimendan.” left out

[3] = baseline to final study visit (week 6-8), oral levosimendan 3-4 mg/day

C[C@@H]1CC(=O)NN=C1c1ccc(NN=C(C#N)C#N)cc1 [levosimendan]
change in NT-proBNP (patients with PH-HFpEF [1]; n=7, baseline to final study visit, oral levosimendan): −239.4 (SD 548.1) pg/dl
change in BNP (patients with PH-HFpEF [1]; n=8, baseline to final study visit, oral levosimendan): −133.3 (SD 136.6) pg/dl
improvement in BNP/NT-ProBNP biomarker measurements (patients with PH-HFpEF [1]; oral levosimendan compared to weekly I.V. infusion): 22%
mean change in resting heart rate (patients with PH-HFpEF [2]; [3]): 4.9 (SD±7.5) beats/min
mean change in systolic arterial blood pressure (patients with PH-HFpEF [2]; [3]): 4.1 (SD±12.6) mm Hg
Heart Rate Change from Baseline to Week 6 Oral, Mean (patients with PH-HFpEF [2]; n=18): 6.9
Heart Rate Change from Baseline to Week 6 Oral, Median (patients with PH-HFpEF [2]; n=18): 5.5
Heart Rate Change from Baseline to Week 6 Oral, Minimum (patients with PH-HFpEF [2]; n=18): −9
SBP Change from baseline to Week 6 - Oral, Maximum (patients with PH-HFpEF [2]; n=18): 34
SBP Change from baseline to Week 6 - Oral, Mean (patients with PH-HFpEF [2]; n=18): 4.1
SBP Change from baseline to Week 6 - Oral, Median (patients with PH-HFpEF [2]; n=18): 1.5
SBP Change from baseline to Week 6 - Oral, Minimum (patients with PH-HFpEF [2]; n=18): −15
